Source: US10695321B2, “Use of glycopyrrolate for treating tachycardia” (Heptares Therapeutics Limited, priority 2011, dated 2020)

Assay: Sealed storage of micronised glycopyrrolate batches, physical changes and repeated particle sizing
Assay type: physicochemical
Conditions: sealed storage for several weeks
From the text: Batches of micronised glycopyrrolate were obtained and, following sealed storage for several weeks, the physical changes of the material from fine cohesive powders to solid agglomerates were observed.
The following section summarises the tests conducted on reported batches of glycopyrrolate received following micronisation: […]

Row | d50 on repeated particle sizing on storage (micronised powder) | SMILES | Physical state of powder on storage
1 | – | C[N+]1(C)CCC(OC(=O)C(O)(c2ccccc2)C2CCCC2)C1 (centres unmarked) [Batch A, glycopyrrolate] | soft lumps of material were found in bulk powder
2 | – | C[N+]1(C)CCC(OC(=O)C(O)(c2ccccc2)C2CCCC2)C1 (centres unmarked) [Batch B, glycopyrrolate] | large hard lumps of material were found
3 | 51 μm | C[N+]1(C)CCC(OC(=O)C(O)(c2ccccc2)C2CCCC2)C1 (centres unmarked) [Batch C, glycopyrrolate] | large hard lumps of material were found in bulk powder
4 | – | C[N+]1(C)CCC(OC(=O)C(O)(c2ccccc2)C2CCCC2)C1 (centres unmarked) [Remicronised Batch C, glycopyrrolate] | only soft lumps of material were found in bulk powder
